From paper PMC7290285 (Viruses, 2020)
Where a name gives a salt, the structure may show the parent alone. Read-outs that look alike come from different tables or passages of the source.

How the values were obtained:
[1] = test system: lentiviral particles with AZT-resistant RT mutant (eGFP) in HEK293T-mCat1 cells; experiment: microbe, parasite or virus in culture; assay type: cell-based, HIV-1
HEK293T-mCat1 cells = conditions: 1 µM
[2] = test system: luciferase lentiviral particles (wild-type RT) in HEK293T-mCat1 cells; experiment: Luciferase-based screening using HEK293T-mCat1 cells; conditions: for Identified as active in the luciferase assay / Relative inhibition [%] of luciferase (wild-type RT): 1 µM; for Identified as active in the luciferase assay: second LOPAC screen; for Relative inhibition [%] of luciferase (wild-type RT): normalized to 1 µM AZT = 100% and DMSO = 0%, HEK293T-mCat1, 3 days
[3] = test system: lentiviral particles with wild-type HIV-1 reverse transcriptase (mCherry) in HEK293T-mCat1 cells; experiment: microbe, parasite or virus in culture; assay type: cell-based
in vitro = conditions: human
[4] = test system: ecotropic pseudo-typed lentiviral particles (luciferase) in PM1-mCat1 cells; experiment: Luciferase-based viral integration assay using PM1-mCat1 cells; conditions: Human immunodeficiency virus 1, read-out: IC50 (in µM), viral integration assay
PM1-mCat1 cells = experiment: Cytotoxicity determination (CellTiter-Glo) in PM1-mCat1 cell line; assay type: cell-based, human; conditions: PM1-mCat1 viability relative to DMSO
[5] = molecular target: mCherry-encoding lentiviral vectors (wild-type reverse transcriptase); experiment: Flow-cytometry based inhibitor analysis, mCherry vector; assay type: cell-based, HIV-1; conditions: Figure S2, read-out: IC50 of the wild-type virus, FC-based analysis
[6] = molecular target: eGFP-encoding lentiviral vectors (mutant reverse transcriptase); experiment: Flow-cytometry based inhibitor analysis, eGFP vector; assay type: cell-based, HIV-1; conditions: Figure S2, read-out: IC50 of the AZT-resistant mutant, FC-based analysis
[7] = test system: HIV-1-derived lentiviral particles (wild-type RT and AZT-resistant RT mutant) in HEK293T-mCat1 cells; assay type: cell-based; conditions: 1 µM
HIV = test system: HIV; set-up: method as in earlier work; conditions: read-out: reported IC50; cited from earlier work
[8] = Human immunodeficiency virus 1, 48 h; read-out: Relative inhibition [%] of eGFP (mutant RT)
[9] = Human immunodeficiency virus 1, 48 h; read-out: Relative inhibition [%] of mCherry (wild-type RT)

## Cc1cn([C@H]2C[C@H](N=[N+]=[N-])[C@@H](CO)O2)c(=O)[nH]c1=O [3‘-Azido-3‘-deoxythymidine]
[1]; 1 µM
  Relative inhibition [%] of eGFP (mutant RT): 38%
HEK293T-mCat1 cells
  Viability [%]: 89%
[2]
  Identified as active in the luciferase assay: again identified
  Relative inhibition [%] of luciferase (wild-type RT): 85%
[2]; AZT control at 1 µM, HEK293T-mCat1
  Reduction of the luciferase signal: 50%
[3]; 1 µM
  Relative inhibition [%] of mCherry (wild-type RT): 73%

## CC(=O)OCC(CCn1cnc2cnc(N)nc21)COC(C)=O [Famciclovir]
[1]; [8]
  inhibition at 1 µM: 100%
In vitro
  viability at 1 µM: 7%
[3]; [9]
  inhibition at 1 µM: 100%

## Nc1nccc2c1ncn2[C@@H]1O[C@H](CO)[C@@H](O)[C@H]1O [3-Deazaadenosine]
[1]; 1 µM
  Relative inhibition [%] of eGFP (mutant RT): -34%
HEK293T-mCat1 cells
  Viability [%]: 85%
[3]; 1 µM
  Relative inhibition [%] of mCherry (wild-type RT): -25%

## O=C(Nc1ccccc1N1CCCCC1)c1cc(S(=O)(=O)N2CCOCC2)ccc1Cl [T6098586, ClC1=C(C=C(C=C1)S(=O)(=O)N1CCOCC1)C(=O)NC1=C(C=CC=C1)N1CCCCC1]
[4]
  IC50: 1.78 µM
PM1-mCat1 cells
  Concentration beyond which the compound is toxic (viability drops below 80%): > 2000 nM

## Nc1nc2c(ncn2COCCO)c(=O)[nH]1 [Acyclovir]
[1]; [8]
  inhibition at 1 µM: -33%
In vitro
  viability at 1 µM: 88%
[3]; [9]
  inhibition at 1 µM: 41%

## Cl.Nc1ccn([C@@H]2O[C@H](CO)[C@@H](O)[C@@H]2O)c(=O)n1 [Cytosine-1-beta-D-arabino-furanoside hydrochloride]
[1]; 1 µM
  Relative inhibition [%] of eGFP (mutant RT): 95%
HEK293T-mCat1 cells
  Viability [%]: 38%
[2]
  Identified as active in the luciferase assay: again identified
  Relative inhibition [%] of luciferase (wild-type RT): 211%
[3]; 1 µM
  Relative inhibition [%] of mCherry (wild-type RT): 98%

## Nc1ccn([C@H]2CC[C@@H](CO)O2)c(=O)n1 [2',3'-Dideoxycytidine]
[1]; [8]
  inhibition at 1 µM: 99%
In vitro
  viability at 1 µM: 7%
[3]; [9]
  inhibition at 1 µM: 100%

## NC12CC3CC(CC(C3)C1)C2 [Amantadine hydrochloride]
[1]; [8]
  inhibition at 1 µM: -29%
In vitro
  viability at 1 µM: 67%
[3]; [9]
  inhibition at 1 µM: 6%

## Cc1c(O)cccc1C(=O)N[C@@H](CSc1ccccc1)[C@H](O)CN1C[C@H]2CCCC[C@H]2C[C@H]1C(=O)NC(C)(C)C [Nelfinavir mesylate hydrate]
[1]; [8]
  inhibition at 1 µM: 49%
In vitro
  viability at 1 µM: 26%
[3]; [9]
  inhibition at 1 µM: 90%

## Oc1ccc(C2CNCCc3c2cc(O)c(O)c3Cl)cc1 (stereo not shown) [Fenoldopam bromide]
[1]; Human immunodeficiency virus 1, 48 h, read-out: Relative inhibition [%] of eGFP (mutant RT)
  inhibition at 1 µM: 65%
In vitro
  viability at 1 µM: 73%
[2]; Human immunodeficiency virus 1, 72 h, read-out: Relative inhibition [%] of luciferase (wild-type RT)
  inhibition at 1 µM: -40%
[3]; Human immunodeficiency virus 1, 48 h, read-out: Relative inhibition [%] of mCherry (wild-type RT)
  inhibition at 1 µM: 61%

## COc1ccc(C2CCCN2C(=O)C2CC(=O)N(c3ccccc3F)C2)c(OC)c1 (stereo not shown) [T6496714, COC1=CC(OC)=C(C=C1)C1CCCN1C(=O)C1CN(C(=O)C1)C1=C(F)C=CC=C1]
[4]
  IC50: 2.44 µM

## O=S(=O)(c1ccc(Sc2ncnc3scc(-c4ccc(F)cc4)c23)nc1)N1CCOCC1 [T5643556, FC1=CC=C(C=C1)C1=CSC2=C1C(SC1=NC=C(C=C1)S(=O)(=O)N1CCOCC1)=NC=N2]
[4]
  IC50: 6.19 µM

## O=S(=O)(c1ccc(CSc2ncnc3scc(-c4ccc(F)cc4)c23)o1)N1CCCC1 [T6366633, FC1=CC=C(C=C1)C1=CSC2=C1C(SCC1=CC=C(O1)S(=O)(=O)N1CCCC1)=NC=N2]
[4]
  IC50: 1.67 µM

## CCNC1=NN=C(c2cc(C)n(C3CC3)c2C)CS1 [T5633521, CCNC1=NN=C(CS1)C1=C(C)N(C2CC2)C(C)=C1]
[4]
  IC50: 1.05 µM

## c1csc(-c2csc3nc(CN4CCOCC4)nc(N4CCCC4)c23)c1 [T5587925, C(N1CCOCC1)C1=NC2=C(C(=CS2)C2=CC=CS2)C(=N1)N1CCCC1]
[4]
  IC50: 3.97 µM

## O=S(=O)(c1ccc(Oc2ncnc3scc(-c4ccc(F)cc4)c23)cc1)N1CCOCC1 [T5413794, FC1=CC=C(C=C1)C1=CSC2=C1C(OC1=CC=C(C=C1)S(=O)(=O)N1CCOCC1)=NC=N2]
[4]
  IC50: 6.91 µM

## Cc1ccccc1NC(=O)CNc1ccccc1-c1ccccc1 [T5947021, CC1=C(NC(=O)CNC2=C(C=CC=C2)C2=CC=CC=C2)C=CC=C1]
[4]
  IC50: 5.61 µM

## CCn1c(SCC(=O)Nc2ccccc2C#N)nc2ccsc2c1=O [T6068357, CCN1C(=O)C2=C(C=CS2)N=C1SCC(=O)NC1=C(C=CC=C1)C#N]
[4]
  IC50: 1.49 µM

## O=C(Cc1csc(-c2ccccn2)n1)N=c1sccn1Cc1ccccc1 [T6357587, O=C(CC1=CSC(=N1)C1=NC=CC=C1)N=C1SC=CN1CC1=CC=CC=C1]
[4]
  IC50: 8.3 µM

## CS(=O)(=O)c1ccc(NC(=O)CNc2ccccc2-c2ccccc2)cc1 [T5950416, CS(=O)(=O)C1=CC=C(NC(=O)CNC2=C(C=CC=C2)C2=CC=CC=C2)C=C1]
[4]
  IC50: 2.08 µM

## NC(=O)c1ncn([C@@H]2O[C@H](CO)[C@@H](O)[C@H]2O)n1 [Ribavirin]
[1]; [8]
  inhibition at 1 µM: -73%
In vitro
  viability at 1 µM: 81%
[3]; [9]
  inhibition at 1 µM: -21%

## N#Cc1ccccc1S(=O)(=O)N1CCN(Cc2ccc(-c3ccccc3)cc2)CC1 [T5432718, O=S(=O)(N1CCN(CC2=CC=C(C=C2)C2=CC=CC=C2)CC1)C1=C(C=CC=C1)C#N]
[4]
  IC50: 6.33 µM

## Cc1nc(SCC(=O)NC(C)c2cccs2)c(C#N)c(C)c1C (stereo not shown) [T5788505, CC(NC(=O)CSC1=C(C#N)C(C)=C(C)C(C)=N1)C1=CC=CS1]
[4]
  IC50: 1.99 µM

## CC(C)CCn1cnc2c1c(=O)n(CC(=O)NC(C)C)c(=O)n2Cc1ccccc1 [T5488769, CC(C)CCN1C=NC2=C1C(=O)N(CC(=O)NC(C)C)C(=O)N2CC1=CC=CC=C1]
[4]
  IC50: 9.06 µM

## Cc1ccc(F)c(NC(=O)c2ccc(OC(F)F)cc2)c1 [T5506295, CC1=CC(NC(=O)C2=CC=C(OC(F)F)C=C2)=C(F)C=C1]
[4]
  IC50: 1.77 µM

## Nc1nc2c(ncn2CCOCP(=O)(O)O)c(=O)[nH]1 [PMEG hydrate]
[5]
  IC50: 560 nM
[1]
  Residual transduction rate, eGFP encoding lentiviral particles, microscopy: 5%
[1]; 1 µM
  Relative inhibition [%] of eGFP (mutant RT): 70%
[6]
  IC50: 1200 nM
HEK293T-mCat1 cells
  Viability [%]: 54%
[2]
  Identified as active in the luciferase assay: again identified
  Relative inhibition [%] of luciferase (wild-type RT): 156%
[3]
  Residual transduction rate, mCherry encoding lentiviral particles, microscopy: 30%
[3]; 1 µM
  Relative inhibition [%] of mCherry (wild-type RT): 94%
[7]
  residual activity in the high-content screening: 5%
HIV
  IC50: 200 nM

## O=C(Nc1ccccc1-n1cccn1)c1ccccc1Br [T6468172, BrC1=C(C=CC=C1)C(=O)NC1=C(C=CC=C1)N1C=CC=N1]
[4]
  IC50: 1.04 µM
